{"source": "paper PMC10922802", "about": "(Journal of the American Chemical Society, 2023)", "assay_type_in_all_cases": "biochemical", "key": {"[1]": {"biological_target": "T1, PglC (Cj) (Campylobacter jejuni, UniProt Q0P9D0)", "T1 sequence (Q0P9D0 1-200)": "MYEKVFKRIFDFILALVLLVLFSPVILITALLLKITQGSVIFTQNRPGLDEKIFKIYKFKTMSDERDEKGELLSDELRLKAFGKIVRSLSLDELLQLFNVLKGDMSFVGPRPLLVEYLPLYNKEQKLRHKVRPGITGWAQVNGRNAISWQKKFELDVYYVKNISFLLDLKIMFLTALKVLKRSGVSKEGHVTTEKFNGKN"}, "[2]": {"biological_target": "T1, PglC (Cj)", "test": "PGT activity assay with UDP-diNAcBac, percent inhibition at […]", "settings": "read-out: % inhibition at 100 μM"}, "[3]": {"biological_target": "T1, PglC (Cj)", "test": "PGT activity assay with UDP-diNAcBac, percent inhibition at […]", "settings": "read-out: % inhibition at 100 μM", "remark": "listed apart in the source"}, "[4]": {"biological_target": "T2, WecA (Tm) (Thermotoga maritima, UniProt Q9X1N5)", "T2 sequence (Q9X1N5 1-291)": "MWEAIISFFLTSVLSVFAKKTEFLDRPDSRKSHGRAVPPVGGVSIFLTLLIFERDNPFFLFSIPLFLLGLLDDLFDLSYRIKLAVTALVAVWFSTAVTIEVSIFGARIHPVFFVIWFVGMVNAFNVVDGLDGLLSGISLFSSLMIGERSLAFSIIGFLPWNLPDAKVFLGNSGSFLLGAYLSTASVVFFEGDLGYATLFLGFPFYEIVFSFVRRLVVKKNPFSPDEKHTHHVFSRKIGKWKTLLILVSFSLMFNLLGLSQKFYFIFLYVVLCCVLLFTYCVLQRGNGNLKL", "test": "PGT activity assay"}}, "note": "Where two headings read alike, the source gives them in different places.", "data": [{"smiles": "CC(=O)N[C@H]1[C@@H](OP(=O)(O)C(F)(F)P(=O)(O)OC[C@H]2O[C@@H](n3ccc(=O)[nH]c3=O)[C@H](O)[C@@H]2O)O[C@H](CO)[C@@H](O)[C@@H]1O", "note": "[compound 4, α-GlcNAc-CF2]", "values": [{"measurement": "IC50", "setting": "[1]", "value": "32 ± 5.3", "unit": "µM"}]}, {"smiles": "CC(=O)N[C@H]1[C@@H](OP(=O)(O)[C@@H](F)P(=O)(O)OC[C@H]2O[C@@H](n3ccc(=O)[nH]c3=O)[C@H](O)[C@@H]2O)O[C@H](CO)[C@@H](O)[C@@H]1O", "note": "[compound 7, α-GlcNAc-(S)-CHF]", "values": [{"measurement": "inhibition at 100 µM", "setting": "[2]", "value": "52 ± 10", "unit": "%"}]}, {"smiles": "O=c1ccn([C@@H]2O[C@H](COP(=O)(O)C(F)(F)P(=O)(O)O)[C@@H](O)[C@H]2O)c(=O)[nH]1", "note": "[compound 3, H-CF2]", "values": [{"measurement": "inhibition at 100 µM", "setting": "[3]", "value": "33 ± 6", "unit": "%"}]}, {"smiles": "CC(=O)N[C@H]1[C@@H](OP(=O)(O)CP(=O)(O)OC[C@H]2O[C@@H](n3ccc(=O)[nH]c3=O)[C@H](O)[C@@H]2O)O[C@H](CO)[C@@H](O)[C@@H]1O", "note": "[compound 11, α-GlcNAc-CH2]", "values": [{"measurement": "IC50", "setting": "[4]", "value": "41 ± 10", "unit": "µM"}, {"measurement": "inhibition at 100 µM", "setting": "[2]", "value": "28 ± 12", "unit": "%"}]}]}
